Patent publication US8067039B2, “Extract of plant Dendrobii caulis and preparing process thereof” (National Yang-Ming University, priority 2003, dated 2011)

Tested on: RPE cell
Experiment: Proteolytic activity of cultured RPE cell extracts on AGE-BSA (electrophoresis, ImageQuant)
Assay type: cell-based, bovine
Conditions: 50 ng/ml HGF
Method: 1×10^6 RPE cells are seeded into the 96-well microplate, containing 10% FCS in DMEM, at 37° C., supplied with 5% CO2. After incubation of 48 hrs, five sets of experiment are treated with the Dendrobii Caulis crude extract, in which each set of experiment includes two microplates for different treating time. After treating for 36 or 48 hrs, 0.01% EDTA is added into the microplate for harvesting the cells, and then the cells are suspended in the […]. Then, the cell solution is centrifuged for 5 min at 1200 rpm, and the cells are suspended back into 10 ml DEME twice. Then, the cell solution is centrifuged again, and is suspended back again with the 0.7 ml Homogenization buffer (50 mM sodium acetate buffer, pH4.5, 1 mM DTT, 0.15M NaCl, 3 mM NaN3) containing 0.1% TritonX-100. Then, the cell solution is vibrated by a sonicator for 15 sec, four cycles, for breaking the cell completely. […] The protein concentration is detected. […]
1×10^6 RPE cells are seeded into the 96-well microplate, containing 10% FCS in DMEM, at 37° C., supplied with 5% CO2. […] After treating for 36 or 48 hrs, 0.01% EDTA is added into the microplate for harvesting the cells, and then the cells are suspended in the DMEM and the cell number is counted. […]

Substance: HGF: hepatocyte growth factor, used at 50 ng/ml as comparison treatment
- proteolytic activity of cultured RPE cell vs control set (48 hours, FIG. 32): a little bit greater
- amount of AGE-BSA (FIG. 33): obviously decreased
